Test results published in publication PMC10778824, “New Chalcone Derivatives Containing 2,4-Dichlorobenzenesulfonamide Moiety with Anticancer and Antioxidant Properties” (International Journal of Molecular Sciences, 2023).
Values after ≈ are worked out from the molar mass of the structure shown. Values joined by “and” are separate entries in the source; they are usually repeats but may differ in a detail not shown here. Identical values can stand only once.

Legend:
[1] = tested on: gastric adenocarcinoma AGS; test: MTT assay, AGS cells; format: cell-based, human
Method: (§1) The human gastric adenocarcinoma AGS, cervical cancer HeLa, and acute promyelocytic leukemia HL-60 cells were obtained from the American Type Culture Collection (ATCC, Manassas, VA, USA). Human neonatal fibroblasts were obtained from LGC Standards (Luckenwalde, Germany). The HeLa and AGS lines were cultured in Dulbecco’s modified Eagle’s medium (DMEM) and DMEM/F12 medium, respectively. The HL-60 line was maintained in RPMI-1640 medium. Fibroblasts were cultured in Fibroblast Growth Medium with Supplement Mix. All the media were supplemented with 100 units/mL of penicillin, 100 µg/mL of streptomycin, and 10% (v/v) fetal bovine serum (FBS) (Merck Millipore, Burlington, MA, USA). The cells were incubated at 37 °C and 5% CO2.
(§2) To estimate the cytotoxic effect of the five compounds (4–8), MTT (3-(4,5-dimethylthiazol-2-yl)-2,5-diphenyltetrazolium bromide) assay was used. Oxaliplatin was used as a positive control in this test. All the cell lines were seeded in 96-well plates at a density of 5 × 10^3 cells/well and treated for 24 h with the compounds at concentrations of 0.5–40 µg/mL. Oxaliplatin was tested in the range of 20–400 µg/mL (50–1000 µM). After treatment, the cells were incubated with MTT (0.5 mg/mL; Merck Millipore, Burlington, MA, USA) for 3 h. Then, DMSO was used to dissolve formazan crystals, and the absorbance of the formazan solution was measured with a plate reader (Epoch, BioTek Instruments, Santa Clara, CA, USA). All the results (±standard deviation (SD)) were obtained from six repetitions in at least two independent experiments. The data are expressed as IC50 values (µg/mL).

cervical cancer HeLa = test: MTT assay, HeLa cells; format: cell-based, human
Method: as §1, §2

[2] = tested on: acute promyelocytic leukemia HL-60; test: MTT assay, HL-60 cells; format: cell-based, human
Method: as §1, §2

[3] = tested on: human neonatal fibroblasts; test: MTT assay, noncancerous fibroblasts; format: cell-based; settings: Homo sapiens, Fibroblast, 24 h treatment
Method: as §1, §2

[4] = Annexin V and dead cell assay (flow cytometry); format: cell-based, human; settings: human, AGS cells, 10 µg/mL, read-out: live cells (viability)
Method: (§3) To estimate the viability and induction of apoptosis/necrosis in the population of AGS cells treated with compound 5, the Muse Annexin V and a Dead Cell Assay Kit (Merck Millipore, Burlington, MA, USA) were used. The cells were seeded in 12-well plates (1 × 10^5 cells/well) and incubated with the compound at concentrations of 1, 5, and 10 µg/mL. […] After 24 h, the cells were stained with the kit reagents, namely, annexin V and 7-AAD (7-aminoactinomycin), and analyzed by flow cytometry (Muse Cell Analyzer, Merck Millipore, Burlington, MA, USA). The experiments were performed in three independent repeats.

AGS cells [5] = test: Annexin V and dead cell assay (flow cytometry); format: cell-based, human; settings: 24 h
Method: as §3

AGS cells [6] = test: MitoPotential assay (mitochondrial membrane depolarization); format: cell-based, human; settings: 10 µg/mL, 5 h
Method: The AGS cells were seeded in a 12-well plate (1 × 10^5 cells/well) and incubated with compound 5 at concentrations of 1, 5, and 10 µg/mL; oxaliplatin at the concentration of 40 µg/mL; and DMSO (0.2%, v/v). After 5 h of exposure, the cells were stained with the Muse MitoPotential Assay Kit (Merck Millipore, Burlington, MA, USA) and analyzed with the Muse Cell Analyzer (Merck Millipore, Burlington, MA, USA). The percentage of depolarized live and dead cells was estimated in the experiments, which were independently repeated three times.

AGS cells [7] = test: Cell cycle analysis (propidium iodide); format: cell-based, human; settings: 48 h
Method: The AGS cells were seeded in a 6-well plate (5 × 10^5 cells/well) and incubated with compound 5 at concentrations of 1, 5, and 10 µg/mL for 48 h; oxaliplatin at the concentration of 40 µg/mL; and DMSO (0.2%, v/v). After treatment, the cells were stained with propidium iodide from the Muse Cell Cycle Assay Kit (Merck Millipore, Burlington, MA, USA), and the amount of cells in each phase of the cell cycle was determined using the Muse Cell Analyzer (Merck Millipore, Burlington, MA, USA). The experiment was independently repeated three times.

[8] = DPPH radical scavenging assay; settings: concentration of 800 µg/mL
Method: The DPPH radical scavenging assay of samples (ligands or complexes) was performed with ascorbic acid as a standard. Different concentrations of chalcone derivatives, dissolved in DMSO, were mixed with the same amount of 0.06 mM DPPH methanolic solution and incubated at room temperature in the dark for 30 min. The absorbance was analyzed at λ = 517 nm using a 96-well microplate reader (Epoch, BioTek System, Winooski, VT, USA). The control was composed of DPPH and DMSO. DPPH inhibition was calculated according to the following Formula (2):DPPH Inhibition (%) = [(Acontrol − Asample)/Acontrol] × 100%(2)

[9] = ABTS radical scavenging assay; settings: concentration of 800 µg/mL
Method: The ABTS radical scavenging assay of chalcone derivatives was performed with ascorbic acid as a standard. Different concentrations of samples, dissolved in DMSO, were mixed with 170 μL of ABTS solution (2 mM ABTS diammonium salt and 3.5 mM potassium persulfate), and water was added to a final volume of 300 μL. ABTS solution with DMSO was used as a control. […] ABTS inhibition was calculated according to the following Formula (3):ABTS Inhibition (%) = [(Acontrol − Asample)/Acontrol] × 100%(3)

[10] = SI = IC50 noncancer cells/IC50 cancer cells, in relation to human neonatal fibroblasts

SMILES: Cc1cc(S(=O)(=O)Nc2ccc(C(=O)/C=C/c3ccc(Br)cc3)cc2)c(Cl)cc1Cl [Compound 5, (E)-N-{4-[3-(4-Bromophenyl)acryloyl]phenyl}-2,4-Dichloro-5-Methylbenzenesulfonamide]
- IC50 ([1]; Homo sapiens, AGS, 24 h, MTT, 24 h treatment): < 1 µg/mL
- selectivity index AGS [1, 10]: 28.75
- IC50 (cervical cancer HeLa; Homo sapiens, HeLa, MTT, 24 h treatment): 5.67 ± 0.35 µg/mL (≈ 10.8 µM)
- selectivity index HeLa (cervical cancer HeLa; [10]): 4.51
- IC50 ([2]; Homo sapiens, HL-60, 24 h, MTT, 24 h treatment): < 1.57 µg/mL
- IC50 HL-60 ([2]; MTT, 24 h treatment): 0.93 ± 0.09 µg/mL (≈ 1.77 µM)
- selectivity index HL-60 [2, 10]: 27.52
- IC50 [3]: 25.6 ± 1.04 µg/mL (≈ 48.7 µM)
- viability at 24 h, 10 µg/mL [4]: 29%
- dead cells (AGS cells [5]; 5 µg/mL): 18.28% ± 1.80%
- late apoptotic cells (AGS cells [5]; 5 µg/mL): 33.92% ± 3.05%
- dead cells (AGS cells [5]; 10 µg/mL): 22.16% ± 2.04%
- late apoptotic cells (AGS cells [5]; 10 µg/mL): 49.90% ± 2.07%
- live cells (viability) (AGS cells [5]; 10 µg/mL): 26.26% ± 4.03%
- depolarized/dead cells (AGS cells [6]): 32.71% ± 3.50%
- depolarized/live cells (AGS cells [6]): 34.20% ± 2.57%
- cells in G0/G1 phase (AGS cells [7]; 1 µg/mL): 41.4%
- cells in G2/M phase (AGS cells [7]; 1 µg/mL): 43.0%
- cells in S phase (AGS cells [7]; 1 µg/mL): 14.6%
- cells in G1 (G0/G1) phase (AGS cells [7]; 10 µg/mL): 34.9% and 34.47% ± 2.87%
- cells in G2/M phase (AGS cells [7]; 10 µg/mL): 23.1% and 21.50% ± 1.50%
- cells in S phase (AGS cells [7]; 10 µg/mL): 15.5% and 13.78% ± 1.70%
- cells in subG0 phase (AGS cells [7]; 10 µg/mL): 27.1% ± 0.87%
- % of DPPH radical inhibition [8]: 30.18 ± 0.23%
- % of ABTS radical inhibition [9]: 16.01 ± 0.69%
